Data set [1] relates to Candida albicans. As to the kind of experiment: Growth inhibition of Candida albicans isolate CaCi-2 assessed as relative fungal growth in presence of Fluconazole after 48 hrs by Almar blue fluorometry. Format: functional, organism-based. To be noted: isolate CaCi-2, 48 h.
Data set [2] has as its system Candida albicans. Briefly: Growth inhibition of Candida albicans isolate CaCi-8 assessed as relative fungal growth in presence of Fluconazole after 48 hrs by Almar blue fluorometry. Format: functional, organism-based. To be noted: isolate CaCi-8, 48 h.
A short description of data set [3]: Aqueous solubility of the compound in phosphate buffered saline. Format: physicochemical.
Data set [4] in a line: Inhibition of HSP90 signaling pathway in Candida albicans.
Data set [5] is described as follows: Inhibition of calcineurin signaling pathway in Candida albicans.
Data set [6] deals with Candida albicans. Briefly: Growth inhibition of Candida albicans isolate CaCi-2 at 1 uM after 48 hrs by Almar blue fluorimetry in presence of fluconazole. To be noted: isolate CaCi-2, 48 h, read-out: GI. Format: functional.
For data set [7], the system named is Candida albicans. Briefly: Growth inhibition of Candida albicans isolate CaCi-8 at 1 uM after 48 hrs by Almar blue fluorometry in presence of Fluconazole. Format: functional. To be noted: isolate CaCi-8, 48 h, read-out: GI.
The subject of data set [8] is Candida albicans. As to the kind of experiment: Antifungal activity against Candida albicans CaCi-2 clinical isolate. Format: functional.
The subject of data set [9] is Candida albicans. As to the kind of experiment: Antifungal activity against Candida albicans CaCi-8 clinical isolate. Format: functional.

Each structure is given as a SMILES string. Converted amounts (≈) assume the structure as drawn. Some results are limits rather than exact numbers.

Turning to `Cc1ccc(C(=O)N2CCN(c3ccnc4cc(Cl)ccc34)CC2)cc1`, the values for the IC50 in data set [1] and in data set [2] were 2.3 µM and 3.1 µM, respectively.

On to `O=C(c1ccc(Cl)cc1)N1CCN(c2ccnc3cc(Cl)ccc23)CC1`, for which the IC50 is 0.7 µM in data set [1], 1.3 µM in [2], above 26 µM in [4] and above 26 µM in data set [5]. For the same compound, the solubility in data set [3] (phosphate buffered saline, read-out: solubility) was below 5 µM. In addition, the inhibition of growth at 1 µM in data set [6] and in data set [7] was 97% in each case.

As for `O=C(C1CCCCC1)N1CCN(c2ccnc3cc(Cl)ccc23)CC1`, the IC50 was 1.7 µM in data set [1] and 4 µM in [2].

Turning to `COc1ccc(C(=O)N2CCN(c3ccnc4cc(Cl)ccc34)CC2)cc1`, the results for the IC50 in data set [1] and in data set [2] were 5.3 µM and 16.8 µM, respectively.

Regarding `O=C(c1ccc(F)cc1)N1CCN(c2ccnc3cc(Cl)ccc23)CC1`, the IC50 in data set [1] is 3.6 µM; in data set [2] it was 4.2 µM.

For `O=C(c1cccc(Cl)c1)N1CCN(c2ccnc3cc(Cl)ccc23)CC1`, the IC50 turned out to be 4.4 µM in data set [1] and 7.8 µM in data set [2].

For the compound `O=C(c1ccccc1Cl)N1CCN(c2ccnc3cc(Cl)ccc23)CC1`, the results for the IC50 in [1] and in data set [2] were 7.3 µM and 14.1 µM, respectively.

For the compound `O=C(c1ccc(Cl)c(Cl)c1)N1CCN(c2ccnc3cc(Cl)ccc23)CC1`, the results for the IC50 in [1] and in data set [2] were 1 µM and 2.1 µM, respectively.

As for `O=C(c1ccccc1)N1CCN(c2ccnc3cc(Cl)ccc23)CC1`, the results for the IC50 in data set [1] and in [2] were 4.4 µM and 6.1 µM, respectively.

On to `CCCC(=O)N1CCN(c2ccnc3cc(Cl)ccc23)CC1`, for which the IC50 turned out to be 6.3 µM in data set [1] and 15 µM in data set [2].

Turning to `CC(C)C(=O)N1CCN(c2ccnc3cc(Cl)ccc23)CC1`, the IC50 in data set [1] was 7.2 µM; in [2], above 26 µM.

For the compound `O=C(C1CCCC1)N1CCN(c2ccnc3cc(Cl)ccc23)CC1`, the IC50 in [1] came to 3.6 µM; in data set [2], 5.3 µM.

In the case of `O=C(Nc1ccc(Cl)cc1)N1CCN(c2ccnc3cc(Cl)ccc23)CC1`, the IC50 in data set [1] turned out to be 4.2 µM; in [2], 2.3 µM.

With `O=C(c1ccc(Cl)nc1)N1CCN(c2ccnc3cc(Cl)ccc23)CC1`, the IC50 came out at 6.7 µM in [1] and 10.9 µM in data set [2]. Besides, the solubility entry in [3] (buffer) is listed as “soluble”.

Consider `O=C(c1ccc(Cl)cn1)N1CCN(c2ccnc3cc(Cl)ccc23)CC1`, for which the IC50 was determined as 4.9 µM in data set [1] and 4.1 µM in data set [2]. The solubility result in data set [3] (buffer) is “soluble”.

For the compound `O=C(c1csc2ccccc12)N1CCN(c2ccnc3cc(Cl)ccc23)CC1`, the IC50 was found to be 1.9 µM in data set [1] and 4 µM in data set [2]. Besides, the solubility entry in data set [3] (buffer) is on record as “soluble”.

In the case of `O=C(c1ccc(Cl)cc1)N1CCN(c2ccnc3ccc(Cl)cc23)CC1`, the IC50 in data set [1] amounted to 2.4 µM; in [2], 6.3 µM.

Regarding `COc1ccc2c(N3CCN(C(=O)c4ccc(Cl)cc4)CC3)ccnc2c1`, the results for the IC50 in data set [1] and in data set [2] were 4.8 µM and 13.7 µM, respectively.

For `Cc1cc(N2CCN(C(=O)c3ccc(Cl)cc3)CC2)c2ccccc2n1`, the IC50 in data set [1] is 7.3 µM; in [2], above 26 µM.

`O=C(c1ccc(Cl)cc1)N1CCN(c2ccnc3ccccc23)CC1`: the IC50 in [1] came to 5.7 µM; in [2], 14.7 µM.

Consider `O=C(c1ccc(Cl)cc1)N1CCN(c2ccccn2)CC1`, for which the values for the IC50 in data set [1] and in [2] were above 10 µM and 24 µM, respectively.

In the case of `O=C(c1ccc(Cl)cc1)N1CCN(c2cccnc2)CC1`, the IC50 in data set [1] was 7.3 µM; in data set [2], above 26 µM.

Regarding `O=C(c1ccc(Cl)cc1)N1CCN(c2ccncc2)CC1`, the IC50 in data set [1] was 7.3 µM; in [2] it was above 26 µM.

As for `Cc1ccc(N2CCN(C(=O)c3ccc(Cl)cc3)CC2)nn1`, the IC50 in data set [1] is 8.5 µM; in [2] it was 20.6 µM.

On to `O=C(c1ccc(Cl)cc1)N1CCN(c2ncccn2)CC1`, for which the figures for the IC50 in data set [1] and in [2] were 7.1 µM and 18.1 µM, respectively.

Turning to `O=C(c1ccc(Cl)cc1)N1CCN(c2cnccn2)CC1`, the IC50 was found to be 9 µM in data set [1] and 22.2 µM in data set [2].

Regarding `O=C(c1ccc(Cl)cc1)N1CCN(c2ncnc3ccccc23)CC1`, the IC50 stood at 4.8 µM in data set [1] and 11 µM in data set [2].

In the case of `O=C(c1ccc(Cl)cc1)N1CCN(c2nc3ccccc3s2)CC1`, the IC50 in data set [1] was determined as 5.5 µM; in data set [2], 10.8 µM.

Take `Cn1ccnc1N1CCN(C(=O)c2ccc(Cl)cc2)CC1`: the values for the concentration for half-maximal inhibition (IC50) in data set [1] and in [2] were 6.2 µM and above 26 µM, respectively.

As to `O=C(c1ccc(Cl)cc1)N1CCN(c2nccs2)CC1`, the IC50 was found to be 6.9 µM in data set [1] and 18.9 µM in data set [2].

Consider `O=C(c1ccc(Cl)cc1)N1CCN(c2ccc(Cl)cc2)CC1`, for which the IC50 was found to be 8.7 µM in data set [1] and 19 µM in [2].

Consider `OC(Cn1cncn1)(Cn1cncn1)c1ccc(F)cc1F` [FLUCONAZOLE], for which the MIC stood at 6.5 µM (≈ 1.99 µg/mL) in [8] and 26 µM (≈ 7.96 µg/mL) in data set [9].
